We go through 14 compounds from patent publication EP0942911B1, “BENZOPYRANOPYRROLE AND BENZOPYRANOPYRIDINE ALPHA-1 ADRENERGIC COMPOUNDS” (Abbott Laboratories, priority 1996, dated 1998).

Test in all cases: biochemical
Test [1] has as its target T1, α-1A adrenoreceptor (rat submaxillary gland) (Rattus norvegicus, UniProt P43140).
T1 sequence (P43140 1-466): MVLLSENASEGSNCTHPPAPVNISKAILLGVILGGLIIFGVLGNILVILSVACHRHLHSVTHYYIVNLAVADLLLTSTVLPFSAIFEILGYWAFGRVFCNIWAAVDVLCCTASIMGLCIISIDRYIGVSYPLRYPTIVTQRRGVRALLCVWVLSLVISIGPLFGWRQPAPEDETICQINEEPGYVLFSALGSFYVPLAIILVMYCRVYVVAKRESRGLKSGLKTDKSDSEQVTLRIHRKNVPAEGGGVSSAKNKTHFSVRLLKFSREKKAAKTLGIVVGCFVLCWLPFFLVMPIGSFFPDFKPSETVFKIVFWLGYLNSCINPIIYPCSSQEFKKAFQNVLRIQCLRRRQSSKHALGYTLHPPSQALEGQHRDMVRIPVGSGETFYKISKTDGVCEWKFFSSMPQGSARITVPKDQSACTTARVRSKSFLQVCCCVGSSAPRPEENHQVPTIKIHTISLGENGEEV
The format is binding. Particulars: [3H]-prazosin radioligand; rat submaxillary gland membranes; read-out: Radioligand Binding (Ki, nM) 1A (Rat). In a few lines:
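Membranes were prepared from rat submaxillary glands as the α-1A adrenoreceptor source. Competition binding followed Greengrass and Bremner, with bound radioligand measured by scintillation counting.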

The next test deals with T2, α-1b adrenoreceptor (Mesocricetus auratus, UniProt P18841).
T2 sequence (P18841 1-515): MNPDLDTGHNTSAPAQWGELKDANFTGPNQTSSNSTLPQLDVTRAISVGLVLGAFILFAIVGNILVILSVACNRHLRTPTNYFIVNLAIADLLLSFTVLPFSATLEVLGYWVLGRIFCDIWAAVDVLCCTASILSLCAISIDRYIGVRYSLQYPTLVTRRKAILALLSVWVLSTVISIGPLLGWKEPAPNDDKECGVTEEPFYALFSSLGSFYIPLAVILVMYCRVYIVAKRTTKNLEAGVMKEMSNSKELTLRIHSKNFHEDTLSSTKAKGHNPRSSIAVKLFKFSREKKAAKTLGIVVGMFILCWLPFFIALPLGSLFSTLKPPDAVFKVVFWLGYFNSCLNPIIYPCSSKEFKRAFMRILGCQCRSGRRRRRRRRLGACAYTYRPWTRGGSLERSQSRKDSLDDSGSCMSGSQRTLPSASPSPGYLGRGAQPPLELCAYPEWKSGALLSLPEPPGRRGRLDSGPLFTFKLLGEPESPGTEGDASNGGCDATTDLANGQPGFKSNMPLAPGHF
It is filed as binding, hamster. The note with it: [3H]-prazosin radioligand; cloned receptor in LTK cell membranes; read-out: Radioligand Binding (Ki, nM) 1b (Hamster). In a few lines: (§1)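 Radioactivity counted by liquid scintillation after radioligand binding to membranes. Receptors: cloned α-1a, α-1b, α-1d stably expressed in LTK mouse fibroblasts (G418 selection, SV40 early promoter); rat submaxillary gland membranes for pharmacologically defined α-1A.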

Another test addresses T3, α-1a adrenoreceptor (Bos taurus, UniProt P18130).
T3 sequence (P18130 1-466): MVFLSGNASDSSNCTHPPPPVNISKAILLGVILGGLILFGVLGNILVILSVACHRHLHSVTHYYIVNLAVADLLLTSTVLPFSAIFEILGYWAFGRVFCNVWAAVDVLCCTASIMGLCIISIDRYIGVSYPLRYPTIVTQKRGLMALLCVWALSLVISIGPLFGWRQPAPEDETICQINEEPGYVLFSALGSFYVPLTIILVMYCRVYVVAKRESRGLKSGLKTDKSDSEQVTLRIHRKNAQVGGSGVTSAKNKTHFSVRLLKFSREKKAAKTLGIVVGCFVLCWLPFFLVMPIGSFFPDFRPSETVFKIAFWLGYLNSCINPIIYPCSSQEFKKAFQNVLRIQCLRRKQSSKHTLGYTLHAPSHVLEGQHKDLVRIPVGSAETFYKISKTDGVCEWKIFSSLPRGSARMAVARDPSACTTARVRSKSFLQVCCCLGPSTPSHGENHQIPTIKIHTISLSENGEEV
The format is binding, bovine. The note with it: [3H]-prazosin radioligand; cloned receptor in LTK cell membranes; read-out: Radioligand Binding (Ki, nM) 1a (Bovine). In a few lines:
as §1

Molecules are shown by their SMILES. Counter-ions that a name gives are not always drawn.

As for `COc1cccc2c1[C@@H]1CN(CCCCn3c(=O)[nH]c4c(sc5ccc(Cl)nc54)c3=O)C[C@@H]1CO2` [Example 37, 3-[4-((3aR,9bR)-cis-9-Methoxy-1,2,3,3a,4,9b-hexahydro-[1]-benzopyrano[3,4-c]pyrrol-2-yl)butyl]-8-chloro-pyrido[2',3':4,5]thieno[3,2-d]pyrimidine-2,4(1H,3H)-dione hydrochloride], the figures for the Ki (in test [1]; on α-1b adrenoreceptor; at α-1a adrenoreceptor) were 0.264 nM, 3.34 nM and 0.069 nM, respectively.

In the case of `COc1cccc2c1[C@@H]1CN(CCCCn3c(=O)[nH]c4c(sc5cc(Cl)cnc54)c3=O)C[C@@H]1CO2` [Example 38, 3-[4-((3aR,9bR)-cis-9-Methoxy-1,2,3,3a,4,9b-hexahydro-[1]-benzopyrano[3,4-c]pyrrol-2-yl)butyl]-7-chloro-pyrido[2',3':4,5]thieno[3,2-d]pyrimidine-2,4(1H,3H)-dione hydrochloride], the results for the Ki (in test [1]; at α-1b adrenoreceptor; on α-1a adrenoreceptor) were 0.376 nM, 5.63 nM and 0.057 nM, respectively.

For `COc1cccc2c1[C@@H]1CN(CCCCn3c(=O)[nH]c4c(sc5ncc(-c6ccccc6)nc54)c3=O)C[C@@H]1CO2` [Example 39, 3-[4-((3aR,9bR)-cis-9-Methoxy-1,2,3,3a,4,9b-hexahydro-[1]-benzopyrano[3,4-c]pyrrol-2-yl)butyl]-8-phenyl-pyrazino[2',3':4,5]thieno[3,2-d]pyrimidine-2,4(1H,3H)-dione hydrochloride], the Ki – broadly, the dissociation constant of the complex between target and ligand, obtained from inhibition or displacement – in test [1] was determined as 0.343 nM; at α-1b adrenoreceptor, 31.9 nM; on α-1a adrenoreceptor it was 0.226 nM.

For `COc1cccc2c1[C@@H]1CN(CCCCn3c(=O)[nH]c4c(sc5nc(-c6ccccc6)cnc54)c3=O)C[C@@H]1CO2` [Example 40, 3-[4-((3aR,9bR)-cis-9-Methoxy-1,2,3,3a,4,9b-hexahydro-[1]-benzopyrano[3,4-c]pyrrol-2-yl)butyl]-7-phenyl-pyrazino[2',3':4,5]thieno[3,2-d]pyrimidine-2,4(1H,3H)-dione hydrochloride], the inhibition constant Ki in test [1] came out at 22.8 nM; at α-1b adrenoreceptor, 33.8 nM; on α-1a adrenoreceptor, 3.02 nM.

In the case of `COc1cccc2c1[C@@H]1CN(CCCCn3c(=O)[nH]c4c(sc5ccncc54)c3=O)C[C@H]1CO2` [Example 41, 3-[4-((3aS,9bR)-trans-9-Methoxy-1,2,3,3a,4,9b-hexahydro-[1]-benzopyrano[3,4-c]pyrrol-2-yl)butyl]-pyrido[3',4':4,5]thieno[3,2-d]pyrimidine-2,4(1H,3H)-dione dihydrochloride], the inhibitory constant (Ki) was found to be 0.069 nM in test [1], 0.603 nM at α-1b adrenoreceptor and 0.031 nM at α-1a adrenoreceptor.

As to `COc1cccc2c1[C@@H]1CN(CCCCn3c(=O)[nH]c4c(sc5cnccc54)c3=O)C[C@H]1CO2` [Example 42, 3-[4-((3aS,9bR)-trans-9-Methoxy-1,2,3,3a,4,9b-hexahydro-[1]-benzopyrano[3,4-c]pyrrol-2-yl)butyl]-pyrido[4',3':4,5]thieno[3,2-d]pyrimidine-2,4(1H,3H)-dione dihydrochloride], the Ki was 0.073 nM in test [1], 0.829 nM at α-1b adrenoreceptor and 0.028 nM on α-1a adrenoreceptor.

Regarding `COc1cccc2c1[C@@H]1CN(CCCCn3c(=O)[nH]c4c(sc5ncccc54)c3=O)C[C@H]1CO2` [Example 44, 3-[4-((3aS,9bR)-trans-9-Methoxy-1,2,3,3a,4,9b-hexahydro-[1]-benzopyrano[3,4-c]pyrrol-2-yl)butyl]-pyrido[3',2':4,5]thieno[3,2-d]pyrimidine-2,4(1H,3H)-dione hydrochloride], the Ki in test [1] is 0.043 nM; on α-1b adrenoreceptor, 0.622 nM; on α-1a adrenoreceptor, 0.043 nM.

As to `COc1cccc2c1[C@@H]1CN(CCCCn3c(=O)[nH]c4c(sc5nc(C)ccc54)c3=O)C[C@H]1CO2` [Example 45, 3-[4-((3aS,9bR)-trans-9-Methoxy-1,2,3,3a,4,9b-hexahydro-[1]-benzopyrano[3,4-c]pyrrol-2-yl)butyl]-7-methyl-pyrido[3',2':4,5]thieno[3,2-d]pyrimidine-2,4(1H,3H)-dione hydrochloride], the results for the inhibitory constant (Ki) (in test [1]; at α-1b adrenoreceptor; at α-1a adrenoreceptor) were 0.125 nM, 1.34 nM and 0.066 nM, respectively.

Turning to `COc1ccc2c(n1)sc1c(=O)n(CCCCN3C[C@H]4COc5cccc(OC)c5[C@@H]4C3)c(=O)[nH]c12` [Example 46, 3-[4-((3aS,9bR)-trans-9-Methoxy-1,2,3,3a,4,9b-hexahydro-[1]-benzopyrano[3,4-c]pyrrol-2-yl)butyl]-7-methoxy-pyrido[3',2':4,5]thieno[3,2-d]pyrimidine-2,4(1H,3H)-dione hydrochloride], the figures for the Ki (in test [1]; at α-1b adrenoreceptor; at α-1a adrenoreceptor) were 0.353 nM, 2.58 nM and 0.033 nM, respectively.

Consider `COc1cccc2c1[C@@H]1CN(CCCCn3c(=O)[nH]c4c(sc5nc(Cl)ccc54)c3=O)C[C@H]1CO2` [Example 47, 3-[4-((3aS,9bR)-trans-9-Methoxy-1,2,3,3a,4,9b-hexahydro-[1]-benzopyrano[3,4-c]pyrrol-2-yl)butyl]-7-chloro-pyrido[3',2':4,5]thieno[3,2-d]pyrimidine-2,4(1H,3H)-dione hydrochloride], for which the values for the Ki (in test [1]; on α-1b adrenoreceptor; at α-1a adrenoreceptor) were 0.245 nM, 2.4 nM and 0.038 nM, respectively.

Regarding `COc1cccc2c1[C@@H]1CN(CCCCn3c(=O)[nH]c4c(sc5ccnc(Cl)c54)c3=O)C[C@@H]1CO2` [Example 48, 3-[4-((3aR,9bR)-cis-9-Methoxy-1,2,3,3a,4,9b-hexahydro-[1]-benzopyrano[3,4-c]pyrrol-2-yl)butyl]-9-chloro-pyrido[3',4';4,5]thieno[3,2-d]pyrimidine-2,4(1H,3H)-dione hydrochloride], the inhibition constant (Ki) stood at 0.475 nM in test [1], 5.75 nM at α-1b adrenoreceptor and 0.048 nM at α-1a adrenoreceptor.

For the compound `COc1cccc2c1[C@@H]1CN(CCCCn3c(=O)[nH]c4c(sc5ccnc(OC)c54)c3=O)C[C@H]1CO2` [Example 49, 3-[4-((3aS,9bR)-trans-9-Methoxy-1,2,3,3a,4,9b-hexahydro-[1]-benzopyrano[3,4-c]pyrrol-2-yl)butyl]-9-methoxy-pyrido[3',4':4,5]thieno[3,2-d]pyrimidine-2,4(1H,3H)-dione fumarate], the Ki in test [1] came out at 0.037 nM; at α-1b adrenoreceptor it was 0.129 nM; at α-1a adrenoreceptor it was 0.007 nM.

For `COc1cccc2c1[C@@H]1CN(CCCCn3c(=O)[nH]c4c(sc5ncc(-c6ccccc6)nc54)c3=O)C[C@H]1CO2` [Example 50, 3-[4-((3aS,9bR)-trans-9-Methoxy-1,2,3,3a,4,9b-hexahydro-[1]-benzopyrano[3,4-c]pyrrol-2-yl)butyl]-8-phenyl-pyrazino[2',3':4,5]thieno[3,2-d]pyrimidine-2,4(1H,3H)-dione hydrochloride], the values for the Ki (in test [1]; on α-1b adrenoreceptor; on α-1a adrenoreceptor) were 1.93 nM, 20.8 nM and 0.335 nM, respectively.

For the compound `COc1cccc2c1[C@@H]1CN(CCCCn3c(=O)[nH]c4c(sc5ccc(OC(C)C)nc54)c3=O)C[C@H]1CO2` [Example 51, 3-[4-((3aS,9bR)-trans-9-Methoxy-1,2,3,3a,4,9b-hexahydro-[1]-benzopyrano[3,4-c]pyrrol-2-yl)butyl]-8-isopropoxy-pyrido[2',3':4,5]thieno[3,2-d]pyrimidine-2,4(1H,3H)-dione hydrochloride], the Ki was 1.19 nM in test [1], 0.868 nM on α-1b adrenoreceptor and 0.064 nM on α-1a adrenoreceptor.
